Columns and labels:
[1] = system: Tetranychus urticae with organophosphate resistance; experiment: Test Case 2 Efficacy Against Tetranychus urticae; details: 125 ppm wettable powder (Formulation Example 1) applied to bean leaf with female adults; 25° C., humidity 65%; after three days
Aphis gossypii = experiment: Test case 1 Efficacy against Aphis gossypii; type: in vivo; details: 125 ppm emulsion (Formulation Example 2) applied to cucumbers parasitized with offspring; 25° C., humidity 65%; after five days
Description: Test case 1 Efficacy against Aphis gossypii
The test was repeated twice.

Structure (SMILES)	insect mortality rate [1]	insect mortality rate (Aphis gossypii)
Cc1cc(Cl)ccc1N=CN(C)C [chlordimeform]	9%	–
Cc1nc(N(C)C)nc(OC(=O)N(C)C)c1C [pirimicarb]	–	9%

— patent US8598367B2, “Nitrogen-containing heterocyclic compound and pest control agent” (Nippon Soda Co., Ltd., priority 2008, dated 2013)
